Laboratory results from patent publication US8859534B2, “2-carboxamide-7-piperazinyl-benzofuran derivatives” (AstraZeneca AB, priority 2009, dated 2014).

Tests used:
5-HT1B receptor = 5-HT1B receptor (Homo sapiens (Human), UniProt P28222); assay: 5-HT1B receptor competition binding assay (SPA, [3H]-GR125743); conditions: for Ki: membranes of CHO cells expressing 5-HT1B receptors, radioligand [3H]-GR125743 0.15-0.2 nM
Source text: (§1) Assays that were used to measure affinity of the compounds of the present invention for 5-HT1A and 5-HT1B receptors are described in J. Recept Signal Transduct. Res. 22:483-495 (2002) and Naunyn-Schmiedeberg's Arch Pharmacol. 356:328-334 (1997) and incorporated by reference herein. These assays were be used with some modifications:
(§2) For the binding assay stably transfected chinese hamster ovary (CHO) cell lines expressing 5-HT1A receptors or 5-HT1B receptors were harvested by centrifugation at 300×g for 10 min and resuspended in 10 mM Tris-HCl, 5 mM EDTA at pH 7.4. The cells were pooled, recentrifuged and resuspended before homogenisation using a Dounce homogeniser (“type B”). Cell membranes were centrifuged at 48 000×g for 10 min and then resuspended in harvesting buffer using an Ultra-Turrax T8 (IKA Labortechnik, Germany), aliquots were stored frozen in −70° C.
Frozen membrane preparations were thawed, homogenized with an Ultra-Turrax and mixed with SPA beads (YSI coated WGA, GE Healthcare/Amersham, Buckinghamshire, UK) in assay buffer containing 50 mM Tris-Base, 4 mM MgCl2, 4 mM CaCl2 (only 5-HT1B), 1 mM EDTA, and adjusted to pH 7.4 with HCl. The beads/membrane solution, final concentration 100 pM receptors for 5-HT1A, 300 pM receptors for 5-HT1B and 0.5 mg SPA beads/well, was pre-incubated in room temperature with stirring for 30-60 min. […] Five (log interval, 10 μM to 1 nM, final concentration) or ten serial dilutions (½-log interval, 10 μM to 0.32 nM, final concentration) of compounds were prepared in DMSO from 10 mM stock solutions. The binding assays were performed in 384-well plates in a final volume of 90 μL/well with the following additions: 9 μL binding buffer; 1 μL compound/DMSO/nonspecific; 20 μL radioligand; and 60 μL beads/membrane mixture. Non-specific binding was defined by using 10 μM WAY100635 for 5-HT1A and 10 μM Methiothepin for 5-HT1B. The assay plates were incubated for 4 hours where after the plates are counted in a Wallac 1450 Microbeta Trilux counter (PerkinElmer LifeScience, US) or similar. Data from the experiments were analyzed using a four parameter logistic equation as follows: Y=Bottom+(Top-Bottom)/1+10^(LogEC50-X)nH.
• Jerning E., Rosqvist S., Mohell N. (2002) NAD-299 antagonises 5-HT-stimulated and Spiperone-inhibited [^35S]GTPγS binding in cloned 5-HT1A receptors. J Recept Signal Transduct Res 22:483-495. • Doménech T., Beleta J., Palacios J. M. (1997) Characterization of human serotonin 1D and 1B receptors using [^3H]-GR-125743, a novel radiolabelled serotonin 5HT1D/1B receptor antagonist. Naunyn-Schmiedeberg's Arch Pharmacol 356:328-334.

5-HT1A receptor = 5-HT1A receptor (Homo sapiens (Human), UniProt P08908); assay: 5-HT1A receptor competition binding assay (SPA, [3H]-8-OH-DPAT); conditions: membranes of CHO cells expressing 5-HT1A receptors; radioligand [3H]-8-OH-DPAT 0.15-0.2 nM
Source text: as §1, §2
Frozen membrane preparations were thawed, homogenized with an Ultra-Turrax and mixed with SPA beads (YSI coated WGA, GE Healthcare/Amersham, Buckinghamshire, UK) in assay buffer containing 50 mM Tris-Base, 4 mM MgCl2, 4 mM CaCl2 (only 5-HT1B), 1 mM EDTA, and adjusted to pH 7.4 with HCl. […] The binding assays were performed in 384-well plates in a final volume of 90 μL/well with the following additions: 9 μL binding buffer; 1 μL compound/DMSO/nonspecific; 20 μL radioligand; and 60 μL beads/membrane mixture. Non-specific binding was defined by using 10 μM WAY100635 for 5-HT1A and 10 μM Methiothepin for 5-HT1B. The assay plates were incubated for 4 hours where after the plates are counted in a Wallac 1450 Microbeta Trilux counter (PerkinElmer LifeScience, US) or similar. Data from the experiments were analyzed using a four parameter logistic equation as follows: Y=Bottom+(Top-Bottom)/1+10^(LogEC50-X)nH.

Chain of 5-HT1A receptor (P08908 whole entry): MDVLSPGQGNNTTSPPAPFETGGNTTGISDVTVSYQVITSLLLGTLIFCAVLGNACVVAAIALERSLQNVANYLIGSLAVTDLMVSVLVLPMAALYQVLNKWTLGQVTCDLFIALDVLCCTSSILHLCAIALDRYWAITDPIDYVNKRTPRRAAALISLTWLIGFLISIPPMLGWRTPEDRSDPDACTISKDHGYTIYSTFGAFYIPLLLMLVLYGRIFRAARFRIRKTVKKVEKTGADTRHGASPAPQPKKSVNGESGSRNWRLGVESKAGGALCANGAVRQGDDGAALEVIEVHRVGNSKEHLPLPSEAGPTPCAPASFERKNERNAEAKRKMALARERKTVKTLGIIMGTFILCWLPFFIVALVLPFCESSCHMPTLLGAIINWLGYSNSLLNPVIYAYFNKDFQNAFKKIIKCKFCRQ
Chain of 5-HT1B receptor (P28222 whole entry): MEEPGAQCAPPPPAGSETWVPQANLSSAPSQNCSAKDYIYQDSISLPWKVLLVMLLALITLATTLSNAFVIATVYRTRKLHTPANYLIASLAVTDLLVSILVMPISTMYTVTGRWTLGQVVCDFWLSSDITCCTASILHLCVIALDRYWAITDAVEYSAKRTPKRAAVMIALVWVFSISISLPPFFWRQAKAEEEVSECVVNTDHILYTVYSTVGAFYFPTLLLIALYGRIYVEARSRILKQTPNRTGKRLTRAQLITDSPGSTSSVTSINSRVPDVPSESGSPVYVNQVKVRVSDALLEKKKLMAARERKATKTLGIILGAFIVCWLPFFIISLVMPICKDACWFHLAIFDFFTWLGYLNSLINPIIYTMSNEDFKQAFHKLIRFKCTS

Row | Compound | Ki (5-HT1B receptor) [nM] | Ki (5-HT1A receptor) [nM] | Kd (5-HT1B receptor; 5-HT1B receptor, Kd used in the calculation of Ki, read-out: Kd of radioligand, saturation binding studies) [nM]
1 | CN(C)C(=O)c1cc2cccc(N3CCN(CCc4ccccn4)CC3)c2o1 [Example 11, N,N-Dimethyl-7-(4-(2-(pyridin-2-yl)ethyl)piperazin-1-yl)benzofuran-2-carboxamide] | 2.1 | 0.16 | 
2 | CN(C)C(=O)c1cc2cccc(N3CCN(CCc4cccc(C(F)(F)F)n4)CC3)c2o1 [Example 42, N,N-dimethyl-7-(4-(2-(6-(trifluoromethyl)pyridin-2-yl)ethyl)piperazin-1-yl)benzofuran-2-carboxamide] | 7 | 0.64 | 
3 | COc1cc(N2CCN(CCc3ccccn3)CC2)c2oc(C(=O)N(C)C)cc2c1 [Example 52, 5-Methoxy-N,N-dimethyl-7-(4-(2-(pyridin-2-yl)ethyl)piperazin-1-yl)benzofuran-2-carboxamide] | 140 | 2.8 | 
4 | O=C(c1cc2cccc(N3CCN(CCc4ccccn4)CC3)c2o1)N1CCCC1 [Example 16, (7-(4-(2-(Pyridin-2-yl)ethyl)piperazin-1-yl)benzofuran-2-yl)(pyrrolidin-1-yl)methanone] | 4.4 | 0.78 | 
5 | O=C(Nc1ccc(N2CCOCC2)cc1)c1cc2cccc(N3CCN(CCc4ccccn4)CC3)c2o1 [Example 2, N-(4-Morpholinophenyl)-7-(4-(2-(pyridin-2-yl)ethyl)piperazin-1-yl)benzofuran-2-carboxamide] | 1.1 | 1.3 | 
6 | O=C(NC1(c2ccccn2)CC1)c1cc2cccc(N3CCN(CCc4ccccn4)CC3)c2o1 [Example 27, N-(1-(Pyridin-2-yl)cyclopropyl)-7-(4-(2-(pyridin-2-yl)ethyl)piperazin-1-yl)benzofuran-2-carboxamide] | 35 | 2.3 | 
7 | COc1ccc(NC(=O)c2ccc(-c3ccncc3)c(C)c2)cc1N1CCN(C)CC1 [[^3H]-GR125743, reference compound] |  |  | 0.87
8 | COc1cccc(CCN2CCN(c3cccc4cc(C(=O)N(C)C)oc34)CC2)n1 [Example 46, 7-(4-(2-(6-Methoxypyridin-2-yl)ethyl)piperazin-1-yl)-N,N-dimethylbenzofuran-2-carboxamide] | 1.4 | 1.3 | 
9 | O=C(NCc1cccnc1)c1cc2cccc(N3CCN(CCc4ccccn4)CC3)c2o1 [Example 35, 7-(4-(2-(Pyridin-2-yl)ethyl)piperazin-1-yl)-N-(pyridin-3-ylmethyl)benzofuran-2-carboxamide] | 34 | 2 | 
10 | CN(C)C(=O)c1cc2c(Br)ccc(N3CCN(CCc4ccccn4)CC3)c2o1 [Example 53, 4-Bromo-N,N-dimethyl-7-(4-(2-(pyridin-2-yl)ethyl)piperazin-1-yl)benzofuran-2-carboxamide] | 11 | 0.35 | 
11 | O=C(NCc1ccccn1)c1cc2cccc(N3CCN(CCc4ccccn4)CC3)c2o1 [Example 1, 7-(4-(2-(Pyridin-2-yl)ethyl)piperazin-1-yl)-N-(pyridin-2-ylmethyl)benzofuran-2-carboxamide] | 19 | 1.3 | 
12 | O=C(NC1CCN(c2ncccc2Cl)CC1)c1cc2cccc(N3CCN(CCc4ccccn4)CC3)c2o1 [Example 8, N-(1-(3-Chloropyridin-2-yl)piperidin-4-yl)-7-(4-(2-(pyridin-2-yl)ethyl)piperazin-1-yl)benzofuran-2-carboxamide] | 0.28 | 0.29 | 
13 | CC(NC(=O)c1cc2cccc(N3CCN(CCc4ccccn4)CC3)c2o1)c1ccccn1 (stereo not shown) [Example 7, N-(1-(Pyridin-2-yl)ethyl)-7-(4-(2-(pyridin-2-yl)ethyl)piperazin-1-yl)benzofuran-2-carboxamide] | 9 | 0.59 | 
14 | Cc1ncc(CNC(=O)c2cc3cccc(N4CCN(CCc5ccccn5)CC4)c3o2)cn1 [Example 34, N-((2-Methylpyrimidin-5-yl)methyl)-7-(4-(2-(pyridin-2-yl)ethyl)piperazin-1-yl)benzofuran-2-carboxamide] | 38 | 3.8 | 
15 | COc1cccnc1CCN1CCN(c2cccc3cc(C(=O)N(C)C)oc23)CC1 [Example 48, 7-(4-(2-(3-Methoxy-2-pyridyl)ethyl)piperazin-1-yl)-N,N-dimethylbenzofuran-2-carboxamide] |  | 0.16 | 
16 | CC(=O)N1CCC(NC(=O)c2cc3cccc(N4CCN(CCc5ccccn5)CC4)c3o2)CC1 [Example 6, N-(1-Acetylpiperidin-4-yl)-7-(4-(2-(pyridin-2-yl)ethyl)piperazin-1-yl)benzofuran-2-carboxamide] | 82 |  | 
17 | N#Cc1ccc(CNC(=O)c2cc3cccc(N4CCN(CCc5ccccn5)CC4)c3o2)cc1 [Example 9, N-(4-Cyanobenzyl)-7-(4-(2-(pyridin-2-yl)ethyl)piperazin-1-yl)benzofuran-2-carboxamide] |  | 0.44 | 
18 | CC(=O)N1CCc2cc(CCN3CCN(c4cccc5cc(C(=O)N6CCC6)oc45)CC3)ccc21 [Example 49, 1-(5-(2-(4-(2-(Azetidine-1-carbonyl)benzofuran-7-yl)piperazin-1-yl)ethyl)indolin-1-yl)ethanone] | 14 |  | 

More lines, in order of falling Ki (5-HT1B receptor), values ahead:

Row | Ki (5-HT1B receptor) [nM] | Ki (5-HT1A receptor) [nM] | Kd (5-HT1B receptor; 5-HT1B receptor, Kd used in the calculation of Ki, read-out: Kd of radioligand, saturation binding studies) [nM] | Compound
19 | 73 |  |  | CN(C)C(=O)c1cc2cccc(N3CCN(CCc4cc(C#N)ccn4)CC3)c2o1 [Example 41, 7-(4-(2-(4-Cyanopyridin-2-yl)ethyl)piperazin-1-yl)-N,N-dimethylbenzofuran-2-carboxamide]
20 | 66 |  |  | COc1ccnc(CCN2CCN(c3cccc4cc(C(=O)N(C)C)oc34)CC2)c1 [Example 39, 7-(4-(2-(4-Methoxypyridin-2-yl)ethyl)piperazin-1-yl)-N,N-dimethylbenzofuran-2-carboxamide]
21 | 50 | 1.5 |  | O=C(NCC1CCOCC1)c1cc2cccc(N3CCN(CCc4ccccn4)CC3)c2o1 [Example 31, 7-(4-(2-(Pyridin-2-yl)ethyl)piperazin-1-yl)-N-((tetrahydro-2H-pyran-4-yl)methyl)benzofuran-2-carboxamide]
22 | 17 |  |  | Cn1cnc(CCNC(=O)c2cc3cccc(N4CCN(CCc5ccccn5)CC4)c3o2)c1 [Example 30, N-(2-(1-Methyl-1H-imidazol-4-yl)ethyl)-7-(4-(2-(pyridin-2-yl)ethyl)piperazin-1-yl)benzofuran-2-carboxamide]
23 | 7.6 | 1.1 |  | N#Cc1ccc(CNC(=O)c2cc3cccc(N4CCN(CCc5ccccn5)CC4)c3o2)cn1 [Example 20, N-((6-Cyanopyridin-3-yl)methyl)-7-(4-(2-(pyridin-2-yl)ethyl)piperazin-1-yl)benzofuran-2-carboxamide]
24 | 6.5 |  |  | O=C(NC1CC1)c1cc2cccc(N3CCN(CCc4ccccn4)CC3)c2o1 [Example 13, N-Cyclopropyl-7-(4-(2-(pyridin-2-yl)ethyl)piperazin-1-yl)benzofuran-2-carboxamide]
25 | 5 | 0.23 |  | CC(=O)N1CCc2cc(CCN3CCN(c4cc(F)cc5cc(C(=O)N(C)C)oc45)CC3)ccc21 [Example 51, 7-(4-(2-(1-Acetylindolin-5-yl)ethyl)piperazin-1-yl)-5-fluoro-N,N-dimethylbenzofuran-2-carboxamide]
26 | 0.46 | 1.9 |  | O=C(c1cc2cccc(N3CCN(CCc4ccccn4)CC3)c2o1)N1CC(Oc2cccnc2)C1 [Example 36, (7-(4-(2-(Pyridin-2-yl)ethyl)piperazin-1-yl)benzofuran-2-yl)(3-(pyridin-3-yloxy)azetidin-1-yl)methanone]
